According to patent US6737383B1, “Herbicidal oxadiazolidines” (priority 1999, dated 2004):

What was measured:
[1] = system: rape; assay: Test B pre/postemergence rape; type: in vivo, Brassica napus
How it was run: (§1)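 Test chemicals in a non-phytotoxic solvent mixture with surfactant were sprayed preemergence onto planted seeds and postemergence onto plants 2 to 18 cm tall (1- to 4-leaf stage). After twelve to sixteen days in a greenhouse, injury was visually rated against untreated controls from 0 (no effect) to 10 (complete control).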

[2] = system: morningglory; assay: Test B pre/postemergence morningglory; type: in vivo, Ipomoea hederacea
How it was run: as §1

[3] = system: velvetleaf; assay: Test B pre/postemergence velvetleaf; type: in vivo, Abutilon theophrasti
How it was run: as §1

[4] = system: wheat; assay: Test B pre/postemergence wheat; type: in vivo, Triticum aestivum
How it was run: as §1

[5] = system: crabgrass; assay: Test B pre/postemergence crabgrass; type: in vivo, Digitaria sanguinalis
How it was run: as §1

[6] = system: wild oat; assay: Test B pre/postemergence wild oat; type: in vivo, Avena fatua
How it was run: as §1

[7] = system: soybean; assay: Test B pre/postemergence soybean; type: in vivo, Glycine max
How it was run: as §1

[8] = system: corn; assay: Test B pre/postemergence corn; type: in vivo, Zea mays
How it was run: as §1

[9] = system: giant foxtail; assay: Test B pre/postemergence giant foxtail; type: in vivo, Setaria faberii
How it was run: as §1

[10] = system: purple nutsedge; assay: Test B pre/postemergence purple nutsedge; type: in vivo, Cyperus rotundus
How it was run: as §1

[11] = system: cocklebur; assay: Test B pre/postemergence cocklebur; type: in vivo, Xanthium strumarium
How it was run: as §1

[12] = system: bedstraw; assay: Test B pre/postemergence bedstraw; type: in vivo, Galium aparine
How it was run: as §1

[13] = system: surinam grass; assay: Test B pre/postemergence surinam grass; type: in vivo, Brachiaria decumbens
How it was run: as §1

[14] = system: sugar beet; assay: Test B pre/postemergence sugar beet; type: in vivo, Beta vulgaris
How it was run: as §1

[15] = system: pigweed; assay: Test B pre/postemergence pigweed; type: in vivo, Amaranthus retroflexus
How it was run: as §1

[16] = system: blackgrass; assay: Test B pre/postemergence blackgrass; type: in vivo, Alopecurus myosuroides
How it was run: as §1

[17] = Postemergence, Rate 62 g/ha, scale 0 to 10, 0 is no effect, 10 is complete control
[18] = Postemergence, Rate 125 g/ha, scale of 0 to 10 where 0 is no effect and 10 is complete control
[19] = Preemergence, Rate 62 g/ha, scale of 0 to 10 where 0 is no effect and 10 is complete control
[20] = Preemergence, Rate 125 g/ha, scale of 0 to 10 where 0 is no effect and 10 is complete control
[21] = Preemergence, Rate 250 g/ha, scale 0 to 10 (0 no effect, 10 complete control)
[22] = Preemergence, Rate 500 g/ha, scale of 0 to 10 where 0 is no effect and 10 is complete control
[23] = Rate 500 g/ha, Postemergence, scale 0 to 10, 0 is no effect, 10 is complete control
[24] = Postemergence, Rate 250 g/ha, scale of 0 to 10, 0 is no effect, 10 is complete control

CC(C)N(C(=O)n1oc(=O)n(C(CCl)CCl)c1=O)c1ccc(F)cc1 [Compound 672]
1: Cocklebur plant response rating [11, 18] | Blackgrass plant response rating [16, 19]
8: Plant response rating, Rape [1, 22] | Morningglory plant response rating [2, 18] | Morningglory plant response rating [2, 24] | Crabgrass plant response rating [5, 19] | Giant foxtail plant response rating [9, 24] | Plant response rating, B. signalgrass [13, 22] | Plant response rating, Sugarbeets [14, 22] | Plant response rating, Redroot pigweed [15, 22] | Redroot pigweed plant response rating [15, 23] | Plant response rating, Blackgrass [16, 21] | Plant response rating, Blackgrass [16, 22]
9: Crabgrass plant response rating [5, 23] | Giant foxtail plant response rating [9, 19] | Giant foxtail plant response rating [9, 23]
7: Plant response rating, Rape [1, 21] | Velvetleaf plant response rating [3, 23] | Crabgrass plant response rating [5, 24] | Plant response rating, Wild oats [6, 22] | Cocklebur plant response rating [11, 23] | Plant response rating, Sugarbeets [14, 21] | Plant response rating, Redroot pigweed [15, 17] | Plant response rating, Redroot pigweed [15, 21]
4: Plant response rating, Morningglory [2, 17] | Plant response rating, Velvetleaf [3, 22] | Plant response rating, Wild oats [6, 20] | Bedstraw plant response rating [12, 24] | Plant response rating, B. signalgrass [13, 20] | B. signalgrass plant response rating [13, 23] | Plant response rating, Sugarbeets [14, 20]
10: Plant response rating, Crabgrass [5, 20] | Plant response rating, Crabgrass [5, 21] | Plant response rating, Crabgrass [5, 22] | Plant response rating, Giant foxtail [9, 20] | Plant response rating, Giant foxtail [9, 21] | Plant response rating, Giant foxtail [9, 22]
5: Plant response rating, Crabgrass [5, 17] | Plant response rating, Wild oats [6, 21] | Soybean plant response rating [7, 23] | Giant foxtail plant response rating [9, 18] | Nutsedge plant response rating [10, 23]
3: Rape plant response rating [1, 18] | Rape plant response rating [1, 23] | Plant response rating, Velvetleaf [3, 20] | Plant response rating, Velvetleaf [3, 21] | Plant response rating, Giant foxtail [9, 17] | Plant response rating, B. signalgrass [13, 18] | B. signalgrass plant response rating [13, 24] | Sugarbeets plant response rating [14, 19] | Sugarbeets plant response rating [14, 23] | Plant response rating, Redroot pigweed [15, 20] | Plant response rating, Blackgrass [16, 20]
6: Plant response rating, Velvetleaf [3, 17] | Velvetleaf plant response rating [3, 18] | Crabgrass plant response rating [5, 18] | Bedstraw plant response rating [12, 23] | Plant response rating, B. signalgrass [13, 21] | Blackgrass plant response rating [16, 24] | Blackgrass plant response rating [16, 23]
2: Plant response rating, Rape [1, 20] | Plant response rating, Morningglory [2, 22] | Plant response rating, Soybean [7, 17] | Soybean plant response rating [7, 18] | Cocklebur plant response rating [11, 24] | B. signalgrass plant response rating [13, 19] | Blackgrass plant response rating [16, 18]
0: Plant response rating, Rape [1, 17] | Rape plant response rating [1, 19] | Morningglory plant response rating [2, 19] | Plant response rating, Morningglory [2, 20] | Plant response rating, Morningglory [2, 21] | Velvetleaf plant response rating [3, 19] | Plant response rating, Wheat [4, 17] | Wheat plant response rating [4, 18] | Wheat plant response rating [4, 19] | Plant response rating, Wheat [4, 20] | Plant response rating, Wheat [4, 21] | Plant response rating, Wheat [4, 22] | Wheat plant response rating [4, 23] | Plant response rating, Wild oats [6, 17] | Wild oats plant response rating [6, 18] | Wild oats plant response rating [6, 19] | Wild oats plant response rating [6, 23] | Soybean plant response rating [7, 19] | Plant response rating, Soybean [7, 20] | Plant response rating, Soybean [7, 21] | Plant response rating, Soybean [7, 22] | Plant response rating, Corn [8, 17] | Corn plant response rating [8, 18] | Corn plant response rating [8, 24] | Corn plant response rating [8, 19] | Plant response rating, Corn [8, 20] | Plant response rating, Corn [8, 21] | Plant response rating, Corn [8, 22] | Corn plant response rating [8, 23] | Plant response rating, Nutsedge [10, 17] | Nutsedge plant response rating [10, 18] | Nutsedge plant response rating [10, 19] | Plant response rating, Nutsedge [10, 20] | Plant response rating, Nutsedge [10, 21] | Plant response rating, Nutsedge [10, 22] | Plant response rating, Cocklebur [11, 17] | Cocklebur plant response rating [11, 19] | Plant response rating, Cocklebur [11, 20] | Plant response rating, Cocklebur [11, 21] | Bedstraw plant response rating [12, 19] | Plant response rating, Bedstraw [12, 20] | Plant response rating, Bedstraw [12, 21] | Plant response rating, Bedstraw [12, 22] | Plant response rating, B. signalgrass [13, 17] | Plant response rating, Sugarbeets [14, 17] | Sugarbeets plant response rating [14, 18] | Redroot pigweed plant response rating [15, 19] | Plant response rating, Blackgrass [16, 17]

CCn1ncc(Cn2c(=O)on(C(=O)N(c3ccc(F)cc3)C(C)C)c2=O)c1Cl [Compound 686]
2: B. signalgrass plant response rating [13, 19]
9: Plant response rating, Crabgrass [5, 20] | Giant foxtail plant response rating [9, 19] | Plant response rating, Giant foxtail [9, 20] | Plant response rating, B. signalgrass [13, 22] | Plant response rating, Blackgrass [16, 22]
7: Plant response rating, B. signalgrass [13, 21] | Plant response rating, Blackgrass [16, 20]
8: Crabgrass plant response rating [5, 19] | Plant response rating, Blackgrass [16, 21]
4: Blackgrass plant response rating [16, 19]
0: Rape plant response rating [1, 19] | Plant response rating, Rape [1, 20] | Morningglory plant response rating [2, 19] | Plant response rating, Morningglory [2, 20] | Velvetleaf plant response rating [3, 19] | Plant response rating, Velvetleaf [3, 20] | Wheat plant response rating [4, 19] | Plant response rating, Wheat [4, 20] | Wild oats plant response rating [6, 19] | Soybean plant response rating [7, 19] | Plant response rating, Soybean [7, 20] | Corn plant response rating [8, 19] | Plant response rating, Corn [8, 20] | Plant response rating, Corn [8, 21] | Nutsedge plant response rating [10, 19] | Plant response rating, Nutsedge [10, 20] | Cocklebur plant response rating [11, 19] | Plant response rating, Cocklebur [11, 21] | Plant response rating, Cocklebur [11, 22] | Bedstraw plant response rating [12, 19] | Plant response rating, Bedstraw [12, 20] | Plant response rating, Bedstraw [12, 21] | Plant response rating, Bedstraw [12, 22] | Sugarbeets plant response rating [14, 19] | Plant response rating, Sugarbeets [14, 20] | Redroot pigweed plant response rating [15, 19]
6: Plant response rating, Redroot pigweed [15, 20]
1: Plant response rating, Wild oats [6, 20]
10: Plant response rating, Crabgrass [5, 21]
5: Plant response rating, B. signalgrass [13, 20]
